Assay results as given in PubChem BioAssay (NCI).
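The compound was tested at five concentrations on cells cultured in 96-well plates, with a 48-hour exposure period. GI50 marks 50% less growth. TGI is the concentration that stops growth completely.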

Key:
Assay in all cases: growth of human tumour cells (NCI), 48 h
EKVX NSCLC = tested on: EKVX NSCLC
UACC-62 melanoma = tested on: UACC-62 melanoma
TK-10 renal = tested on: TK-10 renal
HCC-2998 colon = tested on: HCC-2998 colon
UACC-257 melanoma = tested on: UACC-257 melanoma
HS 578T breast = tested on: HS 578T breast
SF-268 CNS = tested on: SF-268 CNS
HT29 colon = tested on: HT29 colon
NCI-H23 lung = tested on: NCI-H23 lung
NCI-H226 lung = tested on: NCI-H226 lung

| SMILES | GI50 (EKVX NSCLC) [µM] | TGI (EKVX NSCLC) [µM] | GI50 (UACC-62 melanoma) [µM] | TGI (UACC-62 melanoma) [µM] | GI50 (TK-10 renal) [µM] | TGI (TK-10 renal) [µM] | GI50 (HCC-2998 colon) [µM] | TGI (HCC-2998 colon) [µM] | GI50 (UACC-257 melanoma) [µM] | TGI (UACC-257 melanoma) [µM] | GI50 (HS 578T breast) [µM] | TGI (HS 578T breast) [µM] | GI50 (SF-268 CNS) [µM] | TGI (SF-268 CNS) [µM] | GI50 (HT29 colon) [µM] | TGI (HT29 colon) [µM] | GI50 (NCI-H23 lung) [µM] | TGI (NCI-H23 lung) [µM] | GI50 (NCI-H226 lung) [µM] | TGI (NCI-H226 lung) [µM] |
| --- | --- | --- | --- | --- | --- | --- | --- | --- | --- | --- | --- | --- | --- | --- | --- | --- | --- | --- | --- | --- |
| CCCCCCCCCCNCCSS(=O)(=O)O | 4.14 | 19.2 | 1.42 | 3 | 5.31 | 17.7 | 1.73 | 3.19 | 7.88 | 22.4 | 1.67 | 3.6 | 1.22 | 2.52 | 2.21 | 4.79 | 1.9 | 4.49 | 2.51 | 5.16 |
| Cc1ccc(Cl)c(NS(=O)(=O)c2ccc(-c3cnc(C4CC4)o3)cc2)c1 | 0.314 | > 100 | 0.0472 | 34.8 | 16 | > 89.7 | 0.233 | 14.6 | 8.16 | 50.7 | 0.0729 | > 69.6 | 3.33 | > 66.3 | 0.0517 | 16.2 | 0.365 | 62.8 | 1.03 | 28.1 |
| [N-]=[N+]=NCCCn1c2c(c3ccc([N+](=O)[O-])cc3c1=O)C(=O)c1cc(-c3ccccc3)ccc1-2 | > 100 | > 100 | > 100 | > 100 | > 100 | > 100 | > 100 | > 100 | > 100 | > 100 | 56.5 | > 100 | > 100 | > 100 | > 100 | > 100 | > 100 | > 100 | > 100 | > 100 |
| C#C[C@@]1(O)[C@@H](CO)O[C@@H](n2cc(C(F)(F)F)c3c(N)ncnc32)[C@@H]1O | 1.62 | > 25.9 | 0.707 | 2.63 | 0.966 | > 28.2 | 0.423 | 4.24 | 0.6 |  | 1.26 | 6.23 | 1.55 | > 22.9 | 0.207 | 8.3 | 0.651 | 8.19 | 2.7 | > 100 |
| O=C(NCCOCCOCCOCCNC(=O)c1cc2c(o1)C(=O)c1ccccc1C2=O)NC12CC3CC(CC(C3)C1)C2 | 2.57 | 7.07 | 0.571 | 1.92 | 3.68 | 7.24 | 1.99 | 4.02 | 1.36 | 2.83 | 2.18 | 6.85 | 2.29 | 6.22 | 2.6 | 6.79 | 0.234 | 1.97 | 1.56 | 3.66 |
| C=C1C(=O)O[C@H]2[C@H]1CC/C(COC(=O)/C=C\C(=O)NCc1ccc(Cn3c(=O)sn(CCI)c3=O)cc1)=C\CC[C@@]1(C)O[C@@H]21 | 4.7 | 20.2 | 1.83 | 3.86 | 2.09 | 4.35 | 13.9 | 27.8 | 2.07 | 5.97 | 14 | 73.6 | 10.1 | 23.6 | 2.26 | 4.92 | 3.34 | 11.8 | 20.9 | 49 |
